Test results: patent publication US11591323B2, “Muscarinic agonists as non-steroidal and non-opioid analgesics and methods of use thereof” (Barry University, priority 2019, dated 2023)
Read-outs that look alike come from different tables or passages of the source.

Legend:
Assay type in all cases: cell-based
M4 muscarinic receptor = biological target: T1, M4 muscarinic receptor (Homo sapiens, UniProt P08173); experiment: stimulation of cAMP, M4 CHO cells (M4Gs); design: host or cells: CHO cells, stably transfected; conditions: for E′MAX / τ / Δlog(τ/KA) / RAi: M4Gs (↑cAMP); for E′MAX / τ: Table 8; for Δlog(τ/KA): Table 8, to carbachol; for RAi: Table 8, relative to carbachol
T1 sequence (P08173 1-479): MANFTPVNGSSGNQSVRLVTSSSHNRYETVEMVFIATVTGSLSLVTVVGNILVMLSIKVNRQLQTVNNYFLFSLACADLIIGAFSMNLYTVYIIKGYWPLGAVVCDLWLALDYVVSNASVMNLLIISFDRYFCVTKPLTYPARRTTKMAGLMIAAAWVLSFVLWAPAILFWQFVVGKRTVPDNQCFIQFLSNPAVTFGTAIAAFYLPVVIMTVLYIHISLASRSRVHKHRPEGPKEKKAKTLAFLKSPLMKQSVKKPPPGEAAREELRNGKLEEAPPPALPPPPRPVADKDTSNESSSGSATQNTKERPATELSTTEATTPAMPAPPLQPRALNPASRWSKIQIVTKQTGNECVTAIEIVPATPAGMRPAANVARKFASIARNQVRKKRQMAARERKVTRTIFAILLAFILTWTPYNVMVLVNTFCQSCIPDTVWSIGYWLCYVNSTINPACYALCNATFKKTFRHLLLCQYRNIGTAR
Procedure: (§1) To determine level of cAMP, cells in suspension were pre-incubated for 1 h with 0.4 μM [^3H]adenine, washed, and incubated for 10 min in the presence of isobutylmethylxanthine and 10 μM forskolin. […] Incubation was ended by addition of 0.2 ml of 2.5 M HCl to the samples. Samples were applied to alumina columns (1.5 g of alumina per column), washed with 2 ml ammonium acetate (pH=7.0) and eluted from columns with 4 ml ammonium acetate and measured by liquid scintillation spectrometry. […] The incubation was stopped by addition of 0.5 ml of chloroform methanol HCl mixture (2:1:0.1). After separation of water and organic phases, 0.6 ml of water phase was applied to Dowex columns (1.5 g of Dowex per column), washed by 20 ml of 60 mM ammonium formate/5 mM sodium borate buffer and eluted from columns with 4 ml of 1M ammonium formate/0.1 formic acid buffer and measured by liquid scintillation spectrometry.
(§2) Measurements of the production of cAMP and inositol phosphates: Levels of second messengers cAMP and inositol phosphates were determined in radiochemical chromatography assays as described previously. To determine level of cAMP, cells in suspension were pre-incubated for 1 h with 0.4 μM [^3H]adenine, washed, and incubated for 10 min in the presence of isobutylmethylxanthine and 10 μM forskolin. […] Incubation was ended by addition of 0.2 ml of 2.5 M HCl to the samples. Samples were applied to alumina columns (1.5 g of alumina per column), washed with 2 ml ammonium acetate (pH=7.0) and eluted from columns with 4 ml ammonium acetate and measured by liquid scintillation spectrometry. […] For this purpose, new CHO cell lines stably expressing promiscuous G15 G-protein and M2 or M4 receptor were generated by transfection with pCMV/hygro vector and hygromycin selection. To determine the rate of formation of inositol phosphates IPX, suspended cells were pre-incubated with 0.1 μM [^3H]myo-inositol for 60 min, washed, and incubated with 10 mM LiCl for 15 min. […] The incubation was stopped by addition of 0.5 ml of chloroform methanol HCl mixture (2:1:0.1). After separation of water and organic phases, 0.6 ml of water phase was applied to Dowex columns (1.5 g of Dowex per column), washed by 20 ml of 60 mM ammonium formate/5 mM sodium borate buffer and eluted from columns with 4 ml of 1M ammonium formate/0.1 formic acid buffer and measured by liquid scintillation spectrometry.
(§3) For bi-phasic response, curves were inhibitory and stimulatory phase were fitted separately. Operational Model of Functional Agonism
(§4) [formula] where y is functional response at concentration of tested compound x, EMAX is maximal response of the system, KA is equilibrium dissociation constant and nH is slope factor. Eq. 5 was fitted to data from functional experiments. Eq. 5 was fitted to data by the two-step procedure described earlier. […] In the second step, Eq. 5 with EMAX fixed to the value determined in the first step was fitted to individual experimental data sets. Relative Intrinsic Activity

M5 muscarinic receptor = biological target: T2, M5 muscarinic receptor (Homo sapiens, UniProt P08912); experiment: accumulation of IPX, M5 CHO cells transfected with G15 (M5Gq+G15); design: expressed in transfected cells; host or cells: CHO cells; conditions: for E′MAX / τ / EC50: Table 8; for Δlog(τ/KA): Table 8, to carbachol; for Kd: Table 8, read-out: pKA (converted); for RAi: Table 8, relative to carbachol
T2 sequence (P08912 1-532): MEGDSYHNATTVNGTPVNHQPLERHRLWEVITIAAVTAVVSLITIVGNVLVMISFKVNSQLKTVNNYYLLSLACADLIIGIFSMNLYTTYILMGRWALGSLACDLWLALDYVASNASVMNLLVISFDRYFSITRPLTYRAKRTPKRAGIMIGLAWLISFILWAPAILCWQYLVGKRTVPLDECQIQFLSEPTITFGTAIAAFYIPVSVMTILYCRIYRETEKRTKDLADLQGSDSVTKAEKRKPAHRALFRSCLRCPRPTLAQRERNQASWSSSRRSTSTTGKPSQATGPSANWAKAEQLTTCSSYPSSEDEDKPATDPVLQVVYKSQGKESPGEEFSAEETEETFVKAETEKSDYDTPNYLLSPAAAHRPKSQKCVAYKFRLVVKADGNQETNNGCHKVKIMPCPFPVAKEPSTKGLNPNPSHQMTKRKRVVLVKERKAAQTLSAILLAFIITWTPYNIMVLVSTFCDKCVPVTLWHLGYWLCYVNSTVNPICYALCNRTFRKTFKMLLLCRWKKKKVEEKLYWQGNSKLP
Procedure: as §1, §2, §3, §4

M1 muscarinic receptor = biological target: T3, M1 muscarinic receptor (Homo sapiens, UniProt P11229); experiment: accumulation of IPX, M1 CHO cells transfected with G15 (M1Gq+G15); design: host or cells: CHO cells
T3 sequence (P11229 1-460): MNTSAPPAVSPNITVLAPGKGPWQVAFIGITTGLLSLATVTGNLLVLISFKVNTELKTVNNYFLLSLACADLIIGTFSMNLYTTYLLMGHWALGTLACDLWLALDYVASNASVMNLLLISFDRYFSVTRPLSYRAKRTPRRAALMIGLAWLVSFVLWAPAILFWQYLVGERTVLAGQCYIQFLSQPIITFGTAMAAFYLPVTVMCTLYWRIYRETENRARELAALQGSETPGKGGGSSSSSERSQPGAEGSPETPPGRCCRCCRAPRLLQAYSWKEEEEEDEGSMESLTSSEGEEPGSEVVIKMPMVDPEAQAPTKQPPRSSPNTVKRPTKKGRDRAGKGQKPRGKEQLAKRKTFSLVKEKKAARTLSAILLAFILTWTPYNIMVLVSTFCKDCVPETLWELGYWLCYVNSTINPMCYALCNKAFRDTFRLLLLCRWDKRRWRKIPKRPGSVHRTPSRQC
Procedure: as §1, §2, §3, §4

[1] = M1Gq + G15 (↑IPX), Table 8, relative to carbachol
[2] = M1Gq + G15 (↑IPX), Table 8, to carbachol
[3] = M1Gq + G15 (↑IPX), Table 8, read-out: pEC50 (converted)
[4] = M1Gq + G15 (↑IPX), Table 8, read-out: pKA (converted)

Row | SMILES | E′MAX (M4 muscarinic receptor) [fold increase] | τ (M4 muscarinic receptor) | Δlog(τ/KA) (M4 muscarinic receptor) | E′MAX (M5 muscarinic receptor) [fold over basal] | τ (M5 muscarinic receptor) | Δlog(τ/KA) (M5 muscarinic receptor) | E′MAX (M1 muscarinic receptor; M1Gq + G15 (↑IPX), Table 8) [fold increase] | τ (M1 muscarinic receptor; M1Gq + G15 (↑IPX), Table 8) | RAi (M1 muscarinic receptor; [1]) | Δlog(τ/KA) (M1 muscarinic receptor; [2]) | EC50 (M1 muscarinic receptor; [3]) [µM] | Kd (M1 muscarinic receptor; [4]) [µM] | RAi (M4 muscarinic receptor) | EC50 (M5 muscarinic receptor) [µM] | Kd (M5 muscarinic receptor) [µM] | RAi (M5 muscarinic receptor) | further results
1 | C[N+](C)(C)CCOC(N)=O [carbachol, reference compound] | 2.9 ± 0.2 | 1.9 ± 0.2 | 0 | 17 ± 2 | 4.0 ± 0.4 | 0 |  |  |  |  |  |  |  |  |  |  | 
2 | C[N+]1(Cc2cccs2)CC=CCC1.[I-] (stereo not drawn) [Compound 7A, 1-methyl-1-[(thiophen-2-yl)methyl]-1,2,3,6-tetrahydropyridin-1-ium iodide] |  |  |  | 1.28 ± 0.05 | 0.014 ± 0.003 | 3.17 ± 0.88 | 4.6 ± 0.4 | 0.12 ± 0.01 | 0.0111 ± 0.0002 | 1.96 ± 0.16 | 2.63 | 3.16 | 0 | 7.94 | 2 | 0.0007 ± 0.0002 | 
3 | C1=CCN(Cc2cccs2)CC1.Cl [Compound 6A, 1-[(thiophen-2-yl)methyl]-1,2,3,6-tetrahydropyridin-1-ium chloride] |  |  |  | 1.19 ± 0.04 | 0.009 ± 0.003 | 2.60 ± 0.82 | 2.0 ± 0.2 | 0.03 ± 0.01 | 0.0010 ± 0.0001 | 2.98 ± 0.26 | 7.94 | 7.94 | 0 | 1.58 | 1.58 | 0.0025 ± 0.0008 | 
4 | O=C1CCCN1CC#CCN1CCCC1 [oxotremorine, reference compound] | 2.6 ± 0.2 | 1.3 ± 0.1 | −0.55 ± 0.06 | 16 ± 1 | 2.6 ± 0.3 | −0.62 ± 0.07 |  |  |  |  |  |  | 3.58 ± 0.31 |  |  | 4.12 ± 0.26 | EC50 (M1 muscarinic receptor): 0.0525 µM; E′MAX (M1 muscarinic receptor): 25 ± 2 fold increase; Kd (M1 muscarinic receptor): 0.2 µM; RAi (M1 muscarinic receptor): 3.71 ± 0.29; Δlog(τ/KA) (M1 muscarinic receptor): −0.57 ± 0.06; τ (M1 muscarinic receptor): 2.6 ± 0.3; EC50 (M4 muscarinic receptor): 2.75 µM; Kd (M4 muscarinic receptor): 6.31 µM
